Test results published in patent US8563551B2, “Method for preventing or treating a disease related to the glucocorticoid receptor” (Santen Pharmaceutical Co., Ltd., priority 2006, dated 2013).

The compounds below were run against T1, Recombinant human GR (Homo sapiens, UniProt P04150) (assay: GR competitor assay (receptor competitor assay by fluorescence polarization, Invitrogen kit P2816)). Details: 20 μM test compound solution (10 μL per well plus 5 μL 4×GS1 and 5 μL 4×GR); relative to 2 mM dexamethasone positive control; ratios of 100% or more are indicated by 100%; read-out: GR Binding ratio (%).
T1 construct: purchased Invitrogen P2816
T1 sequence (P04150 1-777): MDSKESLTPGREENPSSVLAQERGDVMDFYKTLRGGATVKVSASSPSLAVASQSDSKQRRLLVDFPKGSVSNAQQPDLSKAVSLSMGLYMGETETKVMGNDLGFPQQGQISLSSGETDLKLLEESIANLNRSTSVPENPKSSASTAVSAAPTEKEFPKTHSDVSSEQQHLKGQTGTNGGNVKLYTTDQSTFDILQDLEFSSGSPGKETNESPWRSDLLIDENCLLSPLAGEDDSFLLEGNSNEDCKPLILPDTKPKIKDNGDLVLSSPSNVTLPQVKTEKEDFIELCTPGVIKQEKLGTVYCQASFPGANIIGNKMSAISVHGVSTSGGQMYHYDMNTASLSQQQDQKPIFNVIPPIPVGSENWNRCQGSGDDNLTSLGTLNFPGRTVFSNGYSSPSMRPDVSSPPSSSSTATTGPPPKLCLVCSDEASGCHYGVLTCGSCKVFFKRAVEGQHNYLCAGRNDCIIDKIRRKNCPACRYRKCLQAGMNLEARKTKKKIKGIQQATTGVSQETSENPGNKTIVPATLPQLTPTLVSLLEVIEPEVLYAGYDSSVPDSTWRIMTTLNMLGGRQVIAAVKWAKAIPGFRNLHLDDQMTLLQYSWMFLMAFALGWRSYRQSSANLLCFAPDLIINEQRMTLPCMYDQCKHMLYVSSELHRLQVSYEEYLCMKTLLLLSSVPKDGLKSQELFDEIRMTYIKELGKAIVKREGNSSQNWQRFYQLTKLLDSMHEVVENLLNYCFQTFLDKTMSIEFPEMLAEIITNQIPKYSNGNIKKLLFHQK
Experimental: In order to evaluate a binding activity to GR, a receptor competitor assay was carried out by a fluorescence polarization method. In the assay, a GR competitor assay kit (manufactured by Invitrogen, cat No. P2816) was used, and a procedure was carried out according to the protocol attached to the kit. Hereinafter, the specific method will be described.
GR screening buffer: A buffer containing 10 mM potassium phosphate (pH 7.4), 20 mM sodium molybdate (Na2MoO4), 0.1 mM ethylene diamine tetraacetic acid (EDTA), 5 mM dithiothreitol (DTT), 0.1 mM stabilizing peptide and 2% dimethylsulfoxide was prepared.
4×GS1 solution: Fluormone™ GS1, which is a fluorescent glucocorticoid ligand, was diluted with GR screening buffer, whereby a 4 nM solution was prepared.
4×GR solution: Recombinant human GR was diluted with GR screening buffer, whereby a 16 nM solution was prepared.
After a test compound was dissolved in dimethylsulfoxide, the resulting solution was diluted with GR screening buffer, whereby a 20 μM test compound solution was prepared.
1) The test compound solution was added in an amount of 10 μL into each well of a 384-well plate, and then, 4×GS1 solution and 4×GR solution were added in an amount of 5 μL into each well, respectively.
2) The plate was incubated in a dark place at room temperature for 2 to 4 hours.
3) By using a multimode plate reader, Analyst™ HT (manufactured by LJL Biosystems), fluorescence polarization of each well was measured. As the blank, a well containing GR screening buffer in place of the test compound and 4×GS1 solution was used.
4) The same procedure as that in the above 1) to 3) was carried out except that GR screening buffer was used in place of the test compound solution, and the obtained result was taken as the negative control.
5) The same procedure as that in the above 1) to 3) was carried out except that 2 mM dexamethasone was used in place of the test compound solution, and the obtained result was taken as the positive control.
A GR binding ratio (%) was calculated from the following equation. GR binding ratio(%)=100×[1−(fluorescence polarization of test compound solution−fluorescence polarization of positive control solution)/(fluorescence polarization of negative control solution fluorescence polarization of positive control solution)] (Test Results and Discussion)
COc1cc(OC(=O)c2ccccc2Cl)ccc1-c1ccc2c(c1COC(=O)c1ccc(C)cc1)C(C)=CC(C)(C)N2 [Compound 1-6, 6-[4-(2-Chlorobenzoyloxy)-2-methoxyphenyl]-5-(4-methylbenzoyloxymethyl)-2,2,4-trimethyl-1,2-dihydroquinoline] gave an inhibition at 20 µM (stock) of 100%. For COc1cc(OC(=O)c2cccnc2C)ccc1-c1ccc2c(c1COC(=O)c1ccc(C)s1)C(C)=CC(C)(C)N2 [Compound 1-30, 6-[2-Methoxy-4-(2-methylpyridin-3-ylcarbonyloxy)phenyl]-5-(5-methylthiophen-2-ylcarbonyloxymethyl)-2,2,4-trimethyl-1,2-dihydroquinoline], the inhibition at 20 µM (stock) was 96%. Compound COc1cc(OS(=O)(=O)CC(C)C)ccc1-c1ccc2c(c1COC(=O)c1ccc(C)s1)C(C)=CC(C)(C)N2 [Compound 2-3] has an inhibition at 20 µM (stock) of 97%. COc1cc(OS(=O)(=O)C2CCCC2)ccc1-c1ccc2c(c1COC(=O)c1ccc(C)s1)C(C)=CC(C)(C)N2 [Compound 2-5, 6-(4-Cyclopentylsulfonyloxy-2-methoxyphenyl)-5-(5-methylthiophen-2-ylcarbonyloxymethyl)-2,2,4-trimethyl-1,2-dihydroquinoline] gave an inhibition at 20 µM (stock) of 100%. CCCS(=O)(=O)Oc1ccc(-c2ccc3c(c2COC(=O)c2ccc(C)s2)C(C)=CC(C)(C)N3)c(OC)c1 [Compound 2-2, 6-(2-Methoxy-4-propylsulfonyloxyphenyl)-5-(5-methylthiophen-2-ylcarbonyloxymethyl)-2,2,4-trimethyl-1,2-dihydroquinoline] was tested, and the inhibition at 20 µM (stock) was 99%. COc1cc(OC(=O)c2cccs2)ccc1-c1ccc2c(c1COC(=O)c1ccc(C)s1)C(C)=CC(C)(C)N2 [Compound 1-29, 6-[2-Methoxy-4-(thiophen-2-ylcarbonyloxy)phenyl]-5-(5-methylthiophen-2-ylcarbonyloxymethyl)-2,2,4-trimethyl-1,2-dihydroquinoline] showed an inhibition at 20 µM (stock) of 96%. With COc1cc(OC(=O)c2ccco2)ccc1-c1ccc2c(c1COC(=O)c1ccc(C)cc1)C(C)=CC(C)(C)N2 [Compound 1-10, 6-[4-(Furan-2-ylcarbonyloxy)-2-methoxyphenyl]-5-(4-methylbenzoyloxymethyl)-2,2,4-trimethyl-1,2-dihydroquinoline] the inhibition at 20 µM (stock) was 100%. With COc1cc(OC(=O)c2ccco2)ccc1-c1ccc2c(c1COC(=O)c1ccc(Br)s1)C(C)=CC(C)(C)N2 [Compound 1-39, 5-(5-Bromothiophen-2-ylcarbonyloxymethyl)-6-[4-(furan-2-ylcarbonyloxy)-2-methoxyphenyl]-2,2,4-trimethyl-1,2-dihydroquinoline] the inhibition at 20 µM (stock) was 100%. For COc1cc(OC(=O)c2cccc(C)c2)ccc1-c1ccc2c(c1COC(=O)c1ccc(C)s1)C(C)=CC(C)(C)N2 [Compound 1-46, 6-[2-Methoxy-4-(3-methylbenzoyloxy)phenyl]-5-(5-methylthiophen-2-ylcarbonyloxymethyl)-2,2,4-trimethyl-1,2-dihydroquinoline], the inhibition at 20 µM (stock) was 99%. With COc1cc(OC(=O)c2ccoc2)ccc1-c1ccc2c(c1COC(=O)c1ccc(C)s1)C(C)=CC(C)(C)N2 [Compound 1-25, 6-[4-(Furan-3-ylcarbonyloxy)-2-methoxyphenyl]-5-(5-methylthiophen-2-ylcarbonyloxymethyl)-2,2,4-trimethyl-1,2-dihydroquinoline] the inhibition at 20 µM (stock) was 94%. COc1cc(OC(=O)c2ccccc2)ccc1-c1ccc2c(c1COC(=O)c1ccc(C)s1)C(C)=CC(C)(C)N2 [Compound 1-18, 6-(4-Benzoyloxy-2-methoxyphenyl)-5-(5-methylthiophen-2-ylcarbonyloxymethyl)-2,2,4-trimethyl-1,2-dihydroquinoline] was tested, and the inhibition at 20 µM (stock) was 91%. COc1cc(OC(=O)c2ccoc2)ccc1-c1ccc2c(c1COC(=O)c1ccc(C)cc1)C(C)=CC(C)(C)N2 [Compound 1-3, 6-[4-(Furan-3-ylcarbonyloxy)-2-methoxyphenyl]-5-(4-methylbenzoyloxymethyl)-2,2,4-trimethyl-1,2-dihydroquinoline] gave an inhibition at 20 µM (stock) of 100%. For COc1cc(OS(C)(=O)=O)ccc1-c1ccc2c(c1COC(=O)c1ccc(C)s1)C(C)=CC(C)(C)N2 [Compound 2-6, 6-(2-Methoxy-4-methylsulfonyloxyphenyl)-5-(5-methylthiophen-2-ylcarbonyloxymethyl)-2,2,4-trimethyl-1,2-dihydroquinoline], the inhibition at 20 µM (stock) was 100%. Work on COc1cc(OS(=O)(=O)C(C)C)ccc1-c1ccc2c(c1COC(=O)c1ccc(C)s1)C(C)=CC(C)(C)N2 [Compound 2-4, 6-(4-Isopropylsulfonyloxy-2-methoxyphenyl)-5-(5-methylthiophen-2-ylcarbonyloxymethyl)-2,2,4-trimethyl-1,2-dihydroquinoline] yielded an inhibition at 20 µM (stock) of 100%. COc1cc(OC(=O)c2ccccc2[N+](=O)[O-])ccc1-c1ccc2c(c1COC(=O)c1ccc(C)s1)C(C)=CC(C)(C)N2 [Compound 1-49, 6-[2-Methoxy-4-(2-nitrobenzoyloxy)phenyl]-5-(5-methylthiophen-2-ylcarbonyloxymethyl)-2,2,4-trimethyl-1,2-dihydroquinoline] showed an inhibition at 20 µM (stock) of 98%. With COc1cc(OC(=O)c2cccc(C(C)=O)c2)ccc1-c1ccc2c(c1COC(=O)c1ccc(C)s1)C(C)=CC(C)(C)N2 [Compound 1-27, 6-[4-(3-Acetylbenzoyloxy)-2-methoxyphenyl]-5-(5-methylthiophen-2-ylcarbonyloxymethyl)-2,2,4-trimethyl-1,2-dihydroquinoline] the inhibition at 20 µM (stock) was 89%. For COc1cc(OC(=O)Nc2cccnc2)ccc1-c1ccc2c(c1COC(=O)c1ccc(C)s1)C(C)=CC(C)(C)N2 [Compound 4-1, 6-[2-Methoxy-4-(pyridin-3-ylaminocarbonyloxy)phenyl]-5-(5-methylthiophen-2-ylcarbonyloxymethyl)-2,2,4-trim ethyl-1,2-dihydroquinoline], the inhibition at 20 µM was 100%. COc1cc(OC(=O)c2ccsc2)ccc1-c1ccc2c(c1COC(=O)c1ccc(C)s1)C(C)=CC(C)(C)N2 [Compound 1-24, 6-[2-Methoxy-4-(thiophen-3-ylcarbonyloxy)phenyl]-5-(5-methylthiophen-2-ylcarbonyloxymethyl)-2,2,4-trimethyl-1,2-dihydroquinoline] showed an inhibition at 20 µM (stock) of 94%. With COc1cc(OS(=O)(=O)C2CC2)ccc1-c1ccc2c(c1COC(=O)c1ccc(C)s1)C(C)=CC(C)(C)N2 [Compound 2-9, 6-(4-Cyclopropylsulfonyloxy-2-methoxyphenyl)-5-(5-methylthiophen-2-ylcarbonyloxymethyl)-2,2,4-trimethyl-1,2-dihydroquinoline] the inhibition at 20 µM (stock) was 100%. Work on COc1ccc(C(=O)OCc2c(-c3ccc(OC(=O)c4ccccc4Cl)cc3OC)ccc3c2C(C)=CC(C)(C)N3)cc1 [Compound 1-35, 6-[4-(2-Chlorobenzoyloxy)-2-methoxyphenyl]-5-(4-methoxybenzoyloxymethyl)-2,2,4-trimethyl-1,2-dihydroquinoline] yielded an inhibition at 20 µM (stock) of 100%. In the case of COc1cc(OC(=O)c2ccc(C)nc2)ccc1-c1ccc2c(c1COC(=O)c1ccc(C)s1)C(C)=CC(C)(C)N2 [Compound 1-2, 6-[2-Methoxy-4-(6-methylpyridin-3-ylcarbonyloxy)phenyl]-5-(5-methylthiophen-2-ylcarbonyloxymethyl)-2,2,4-trimethyl-1,2-dihydroquinoline], the inhibition at 20 µM (stock) is reported as 93%. For COC(=O)c1cccc(C(=O)Oc2ccc(-c3ccc4c(c3COC(=O)c3ccc(C)s3)C(C)=CC(C)(C)N4)c(OC)c2)c1 [Compound 1-26, 6-[2-Methoxy-4-(3-methoxycarbonylbenzoyloxy)phenyl]-5-(5-methylthiophen-2-ylcarbonyloxymethyl)-2,2,4-trimethyl-1,2-dihydroquinoline], the inhibition at 20 µM (stock) was 94%.
